Data set [1] concerns HIV-1 NL4-3. Put plainly: Specific virus infectivity by MAGI assay. The following applies: higher concentrations required. It counts as cell-based. As for the experimental part:
FIG. 15A-D. N16 inhibits HIV-1 NL4-3 and Gag VLP production. A) Effect on virus production. Virus particles from N16-treated 293T cells transfected with pNL4-3 as determined by ELISA assay. Top, The compound was added 6 hr prior to DNA transfection and tissue culture media was harvested 24 hr later. Bottom, The compound was added at the indicated concentration 24 hr after DNA transfection and tissue culture media was harvested 24 hr later. Assay values were normalized to that of the DMSO carrier control. B) Effect on virus infectivity. Infectious viral particles per ng p24 as determined by MAGI assay. C) Left, Electron microscopy of particles at cell surface at 24 hr post-N16 addition; Right, Quantitative analysis of budding morphologies. […] Bottom, Quantitative analysis. […]
For production of virus particles, 293T cells were transfected with pNL4-3-ΔEnv and pIIIB Env3-1 plasmids and for virus-like particles (VLP), with pCMV-Gag-HA as previously described (Watanabe et al. (2013)). For specific infectivity, media-associated p24 was determined by ELISA (Immunodiagnostics, Inc.) and equivalent amounts of p24 were used to infect HeLa-CD4+-LTR-3 gal cells for infectivity measurement by the multinuclear activation of a galactosidase indicator (MAGI) assay. […] Virus particle release efficiency was calculated [VLP signal intensity/(VLP signal intensity+cell lysate signal intensity)]. […]

In data set [2] the test system is HIV-1 NL4-3. Kind of data set: Spreading infection of Jurkat cells infected with NL4-3, p24 capture ELISA. Format: cell-based. As for the experimental part: FIG. 16A-B. N16 inhibition of HIV-1 transmission in a spreading infection in Jurkat cells. A) Schematic diagram summarizing experimental protocol. Jurkat cells (triplicate samples of 5×10^5/well) were incubated for 2 hr with HIV-1 NL4-3 in treatment media containing 50 μM N16 or control vehicle (DMSO). At the end of this period, unbound virus was removed by centrifugation and the cells washed once, resuspended in fresh media and returned to the 37° C. incubator. For the next 15 days, tissue culture media was removed daily by centrifugation and saved for virus measurement by p24 capture ELISA and cells were replenished with fresh control or N16 treatment media. B) ELISA readings. In control media (containing DMSO), virus replication peaked at day 11; in the presence of N16, production peaked at 13 days. […] Cells were monitoring periodically for viability by Trypan Blue assay. To test their ability to produce virus after this sustained exposure, at day 15 the N16-treated cells were washed, fresh media without inhibitor was added and the cells were incubated 4 days longer (to day 19). The supernatant was collected, the cells were washed again and then incubated for another 4 days in media with inhibitor, adding fresh inhibitor daily. The final supernatant was collected on day 23. […] Thus, the cells maintained the ability to produce virus and the virus in the population at 15 days was essentially as susceptible to N16 as the initial virus population used to infect the Jurkat cells. Number of independent trials: n=2.
To investigate whether the ability to bind the UEV domain could affect Tsg101's function during HIV's budding process, viral particle production was tested (FIG. 15). […] Addition of N16 at 24 hr post-transfection had little effect on budding even at higher concentrations (FIG. 15A, bottom). […] After 15 days, virus production was reduced by 15-fold. Cell viability was maintained under these conditions of sustained drug exposure as indicated by trypan blue viability assay every 3rd day. […] Following the re-addition of N16 to the media, virus titer at this point was reduced 50-fold 4 days indicating maintenance of drug susceptibility.
Background: An ELISA detects its analyte on a solid surface through an enzyme-linked reagent.

The next data set is described as follows: Plasma level in humans. Format: in vivo, human. To be noted: equivalent of the plasma level. An excerpt:
Targeting of the Gag-Tsg101 interaction for inhibition of HIV budding has been an active field over the last fifteen years, mostly focusing on interference with PTAP binding (Tavassoli, A. et al. (2008); Chen, H., et al. (2010); Kim, S. E. et al. (2011); Lu, J. et al. (2014)). Theoretically, a synthetic peptide that mimics the PTAP motif could compete for the PTAP binding pocket of Tsg101 in cells. […]; Liu, F. et al. (2008)). Although high-resolution structures for the highest affinity complexes have not yet been elucidated, docking studies indicate that these PTAP inhibitors bind to the hydrophobic surface of Tsg101 around residue T56 (Kim, S. E. et al. (2011)). […]. […] Indeed, the dose of N16 provided is 40 milligrams. Seven microgram/ml is achieved in human plasma (Hunt, R. H. et al. (2005)), a level that is equivalent to a 20 micromolar concentration of the drug. The lowest concentration that we achieved in tissue culture assays when N16 was provided under the optimal conditions described in the text (c.f FIG. 15) was 25-50 micromolar. The current availability of the F15/N16 compounds in diverse long-acting slow-release formulations is another feature adaptable to further refined development of the F15/N16 compounds that could address issues pertaining to drug regimen adherence. […]

Each structure is given as a SMILES string.

With `COc1ccc2[nH]c([S+]([O-])Cc3ncc(C)c(OC)c3C)nc2n1` (stereo not shown) [N16, tenatoprazole], in the data set on HIV-1 NL4-3 [1], the “specific infectivity of the virus” value is listed as “diminished in dose-dependent fashion”. In addition, in the data set with HIV-1 NL4-3 [2] (50 μM N16, Jurkat cells, peak values / after 15 days), the “reduction of virus production” value stood at 15 fold. For the same compound, the “time of peak virus production” value with HIV-1 NL4-3 [2] (50 μM N16, control peaked at day 11) was determined as 13 days. In addition, in the data set with HIV-1 NL4-3 [2] (media without inhibitor, 4 days (day 15 to 19)), the “resurgence of virus when N16 removed” value is reported as 10 fold. Also, the “reduction of virus on re-addition of N16” value in the data set on HIV-1 NL4-3 [2] (re-addition of N16, 4 days (to day 23)) is recorded as 50 fold. Besides, the “cell viability, trypan blue assay” value in the data set on HIV-1 NL4-3 [2] (sustained drug exposure, every 3rd day) is “maintained”. Besides, the “plasma level, equivalent concentration” value in the data set “Plasma level in humans” is 20 µM.

These data come from US12059413B2, “Methods of inhibiting viruses using compositions targeting TSG101-ubiquitin interaction” (The Research Foundation for the State University of New York, priority 2016, dated 2024).
